Assay [1] has as its target T1, human mAChR M1 (Homo sapiens, UniProt P11229).
T1 construct: host or cells: CHO-K1 cells (ATCC), stably transfected using Lipofectamine2000
T1 sequence (P11229 1-460): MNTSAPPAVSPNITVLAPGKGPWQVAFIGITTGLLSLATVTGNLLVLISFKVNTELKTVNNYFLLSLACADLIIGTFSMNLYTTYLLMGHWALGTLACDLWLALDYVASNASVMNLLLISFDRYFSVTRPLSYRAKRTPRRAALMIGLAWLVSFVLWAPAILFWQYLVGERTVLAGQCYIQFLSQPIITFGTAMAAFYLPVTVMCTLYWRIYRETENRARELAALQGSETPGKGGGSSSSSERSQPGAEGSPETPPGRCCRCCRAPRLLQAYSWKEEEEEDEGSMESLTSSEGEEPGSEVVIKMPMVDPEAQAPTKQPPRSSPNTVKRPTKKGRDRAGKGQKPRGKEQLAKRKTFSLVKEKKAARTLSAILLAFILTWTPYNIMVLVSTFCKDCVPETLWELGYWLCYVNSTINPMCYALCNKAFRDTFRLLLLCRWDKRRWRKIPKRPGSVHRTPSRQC
The assay is described as follows: mAChR M1 cell-based functional assay (calcium mobilization), PAM activity: increase in the EC20 acetylcholine response. The following applies: CHO-K1 cells expressing hM1; potentiation of EC20 acetylcholine response. Put shortly: (§1)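 CHO-K1 cells stably expressing hM1, loaded with Fluo-4 AM; calcium flux read on FDSS 6000. Compound (11-point, 1:3 CRC) added at 4 s, EC20 acetylcholine at 144 s, EC80 at 230 s; agonism from response to compound alone, PAM from increase in EC20 response; Emax relative to acetylcholine maximum, four-parameter fit.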
(Calcium flux is commonly read through the fluorescence of an indicator in the cells.)

Assay [2] concerns the target T1, human mAChR M1. As to the kind of experiment: mAChR M1 cell-based functional assay (calcium mobilization), agonist activity upon compound addition. The following applies: CHO-K1 cells expressing hM1; for EC50: compound alone, before acetylcholine addition; for Emax: relative to the maximum for acetylcholine. Put shortly:
as §1

This is an account of results in patent US20220041606A1, “POSITIVE ALLOSTERIC MODULATORS OF THE MUSCARINIC ACETYLCHOLINE RECEPTOR M1” (Vanderbilt University, priority 2020, published 2022).

Regarding `Cn1cc2c(-c3cc(F)c(Cn4cc(C(=O)N[C@H]5CCOC[C@@H]5O)c5ncn(C)c5c4=O)c(F)c3)cccc2n1` [Compound C4, 5-(2,6-difluoro-4-(2-methyl-2H-indazol-4-yl)benzyl)-N-((3R,4S)-3-hydroxytetrahydro-2H-pyran-4-yl)-3-methyl-4-oxo-4,5-dihydro-3H-imidazo[4,5-c]pyridine-7-carboxamide], at human mAChR M1 [1], the EC50 came out at 0.31 µM and the Emax turned out to be 58%. For the same compound, at human mAChR M1 [2], the EC50 was > 10 µM and the Emax is < 5%.
Consider `Cn1ccc(-c2ccc(Cn3cc(C(=O)N[C@H]4CCCC[C@@H]4O)c4ncn(C)c4c3=O)c(F)c2)n1` [Compound C1, 5-(2-Fluoro-4-(1-methyl-1H-pyrazol-3-yl)benzyl)-N-((1S,2S)-2-hydroxycyclohexyl)-3-methyl-4-oxo-4,5-dihydro-3H-imidazo[4,5-c]pyridine-7-carboxamide], for which, on human mAChR M1 [1], the EC50 is 0.25 µM and the Emax stood at 65%. Further, the Emax on human mAChR M1 [2] stood at 8%.
On to `Cc1cc(C)cc(-c2ccc(Cn3cc(C(=O)N[C@H]4CCOC[C@@H]4O)c4ncccc4c3=O)c(F)c2)c1` [Compound A30, 6-((3-fluoro-3′,5′-dimethyl-[1,1′-biphenyl]-4-yl)methyl)-N-((3R,4S)-3-hydroxytetrahydro-2H-pyran-4-yl)-5-oxo-5,6-dihydro-1,6-naphthyridine-8-carboxamide], for which, on human mAChR M1 [1], the EC50 is 4.61 µM and the Emax is 47%. Besides, at human mAChR M1 [2], the EC50 is > 10 µM and the Emax is < 5%.
Taken in the same sequence, the figures for `Cn1ccc(-c2ccc(Cn3cc(C(=O)NC4CCOC(C)(C)C4)c4occc4c3=O)c(F)c2)n1` (centres unmarked) [Compound D11, N-(2,2-dimethyltetrahydro-2H-pyran-4-yl)-5-(2-fluoro-4-(1-methyl-1H-pyrazol-3-yl)benzyl)-4-oxo-4,5-dihydrofuro[3,2-c]pyridine-7-carboxamide] were > 10 µM, 24%, > 10 µM and < 5%.
Turning to `Cn1cc2c(-c3cc(F)c(Cn4cc(C(=O)NC5CC6(COC6)C5)c5nccnc5c4=O)c(F)c3)cccc2n1` [Compound A71, 6-(2,6-difluoro-4-(2-methyl-2H-indazol-4-yl)benzyl)-5-oxo-N-(2-oxaspiro[3.3]heptan-6-yl)-5,6-dihydropyrido[3,4-b]pyrazine-8-carboxamide], at human mAChR M1 [1], the EC50 amounted to 3.1 µM and the Emax came out at 57%. For the same compound, at human mAChR M1 [2], the concentration for a half-maximal effect (EC50) was > 10 µM and the Emax was < 5%.
On the same counts, the results for `Cc1cn2c(=O)n(Cc3ccc(-c4ccn(C)n4)cc3F)cc(C(=O)N[C@H]3CCCC[C@@H]3O)c2n1` [Compound B26, 6-(2-fluoro-4-(1-methyl-1H-pyrazol-3-yl)benzyl)-N-((1S,2S)-2-hydroxycyclohexyl)-2-methyl-5-oxo-5,6-dihydroimidazo[1,2-c]pyrimidine-8-carboxamide] are 5.53 µM, 28%, > 10 µM and < 5%.
Turning to `Cn1ccc(-c2ccc(Cn3cc(C(=O)N[C@H]4CCCC[C@@H]4O)c4nccnc4c3=O)c(F)c2)n1` [Compound A55, 6-(2-fluoro-4-(1-methyl-1H-pyrazol-3-yl)benzyl)-N-((1S,2S)-2-hydroxycyclohexyl)-5-oxo-5,6-dihydropyrido[3,4-b]pyrazine-8-carboxamide], on human mAChR M1 [1], the concentration giving a half-maximal response (EC50) stood at 7.9 µM and the Emax was determined as 67%. Also, on human mAChR M1 [2], the EC50 is > 10 µM and the Emax came out at 12%.
Taken in the same sequence, the figures for `Cc1ccc(-c2cc(F)c(Cn3cc(C(=O)N[C@H]4CCOC[C@@H]4O)c4ncccc4c3=O)c(F)c2)cn1` [Compound A34, 6-(2,6-difluoro-4-(6-methylpyridin-3-yl)benzyl)-N-((3R,4S)-3-hydroxytetrahydro-2H-pyran-4-yl)-5-oxo-5,6-dihydro-1,6-naphthyridine-8-carboxamide] were 0.62 µM, 65%, 2.88 µM and 12%.
For the compound `Cn1ccc(-c2ccc(Cn3cc(C(=O)N[C@H]4CCOC[C@@H]4O)c4ncccc4c3=O)c(F)c2)n1` [Compound A1, 6-(2-Fluoro-4-(1-methyl-1H-pyrazol-3-yl)benzyl)-N-((3R,4S)-3-hydroxytetrahydro-2H-pyran-4-yl)-5-oxo-5,6-dihydro-1,6-naphthyridine-8-carboxamide], on human mAChR M1 [1], the EC50 worked out at 0.48 µM and the Emax is 90%. Besides, at human mAChR M1 [2], the EC50 was 7.9 µM and the Emax stood at 20%.
On the same counts, the results for `O=C(N[C@H]1CCCC[C@@H]1O)c1cn(Cc2ccc(-n3cccn3)cc2)c(=O)n2ccnc12` [Compound B13, 6-(4-(1H-pyrazol-1-yl)benzyl)-N-((1S,2S)-2-hydroxycyclohexyl)-5-oxo-5,6-dihydroimidazo[1,2-c]pyrimidine-8-carboxamide] are 0.1 µM, 70%, 3.17 µM and 55%.
Taken in the same sequence, the figures for `Cn1cc2c(-c3cc(F)c(Cn4cc(C(=O)N[C@H]5CCC[C@@H]5O)c5occc5c4=O)c(F)c3)cccc2n1` [Compound D20, 5-(2,6-difluoro-4-(2-methyl-2H-indazol-4-yl)benzyl)-N-((1S,2S)-2-hydroxycyclopentyl)-4-oxo-4,5-dihydrofuran[3,2-c]pyridine-7-carboxamide] were 0.81 µM, 77%, > 10 µM and < 5%.
Consider `Cn1ccc(-c2ccc(Cn3cc(C(=O)N[C@H]4CCC[C@@H]4O)c4occc4c3=O)c(F)c2)n1` [Compound D8, 5-(2-Fluoro-4-(1-methyl-1H-pyrazol-3-yl)benzyl)-N-((1S,2S)-2-hydroxycyclopentyl)-4-oxo-4,5-dihydrofuro[3,2-c]pyridine-7-carboxamide], for which, at human mAChR M1 [1], the EC50 amounted to 5.13 µM and the Emax turned out to be 32%. Moreover, at human mAChR M1 [2], the EC50 is > 10 µM and the Emax is < 5%.
`Cn1cc2c(-c3cc(F)c(Cn4cc(C(=O)N[C@H]5CCC[C@@H]5O)c5nccnc5c4=O)c(F)c3)cccc2n1` [Compound A68, 6-(2,6-difluoro-4-(2-methyl-2H-indazol-4-yl)benzyl)-N-((1S,2S)-2-hydroxycyclopentyl)-5-oxo-5,6-dihydropyrido[3,4-b]pyrazine-8-carboxamide]: on human mAChR M1 [1], the half-maximal effective concentration (EC50) worked out at 1.2 µM and the Emax amounted to 74%. In addition, the Emax on human mAChR M1 [2] was found to be 8%.
Consider `O=C(N[C@H]1CCOC[C@@H]1O)c1cn(Cc2ccc(-c3cscn3)cc2)c(=O)n2ccnc12` [Compound B17, N-((3R,4S)-3-hydroxytetrahydro-2H-pyran-4-yl)-5-oxo-6-(4-(thiazol-4-yl)benzyl)-5,6-dihydroimidazo[1,2-c]pyrimidine-8-carboxamide], for which, at human mAChR M1 [1], the EC50 worked out at 0.47 µM and the Emax was 83%. At human mAChR M1 [2], the EC50 is > 10 µM and the Emax was 24%.
Take `Cn1cc(-c2ccc(Cn3cc(C(=O)N[C@H]4CCOC[C@@H]4O)c4nccnc4c3=O)c(F)c2)cn1` [Compound A77, 6-(2-fluoro-4-(1-methyl-1H-pyrazol-4-yl)benzyl)-N-((3R,4S)-3-hydroxytetrahydro-2H-pyran-4-yl)-5-oxo-5,6-dihydropyrido[3,4-b]pyrazine-8-carboxamide]: on human mAChR M1 [1], the EC50 worked out at 4.21 µM and the Emax worked out at 72%. On human mAChR M1 [2], the Emax amounted to 18%.
With `Cn1cc2c(-c3cc(F)c(Cn4cc(C(=O)N[C@H]5CC[C@@H]5O)c5nccn5c4=O)c(F)c3)cccc2n1` [Compound B22, 6-(2,6-difluoro-4-(2-methyl-2H-indazol-4-yl)benzyl)-N-((1S,2S)-2-hydroxycyclobutyl)-5-oxo-5,6-dihydroimidazo[1,2-c]pyrimidine-8-carboxamide], on human mAChR M1 [1], the EC50 came to 1.27 µM and the Emax was 59%. In addition, on human mAChR M1 [2], the EC50 is > 10 µM and the Emax turned out to be 19%.
Take `Cn1cc(-c2ccc(Cn3cc(C(=O)N[C@H]4CCCCC[C@@H]4O)c4nccnc4c3=O)c(F)c2)cn1` [Compound A78, 6-(2-fluoro-4-(1-methyl-1H-pyrazol-4-yl)benzyl)-N-((1S,2S)-2-hydroxycycloheptyl)-5-oxo-5,6-dihydropyrido[3,4-b]pyrazine-8-carboxamide]: at human mAChR M1 [1], the EC50 worked out at 2.98 µM and the maximum response (Emax) was 67%. Besides, the Emax at human mAChR M1 [2] came to 5%.
As to `Cn1cc(-c2ccc(Cn3cc(C(=O)N[C@H]4CCCC[C@@H]4O)c4ncccc4c3=O)cc2)cn1` [Compound A86, N-((1S,2S)-2-hydroxycyclohexyl)-6-(4-(1-methyl-1H-pyrazol-4-yl)benzyl)-5-oxo-5,6-dihydro-1,6-naphthyridine-8-carboxamide], on human mAChR M1 [1], the EC50 was 0.37 µM and the Emax was determined as 52%. Besides, on human mAChR M1 [2], the half-maximal effective concentration (EC50) was > 10 µM and the Emax is < 5%.

As a reminder, the EC50 is the midpoint of the concentration-response curve. The term Emax denotes the size of the effect at its maximum, as opposed to the concentration needed.
